Assay results as given in PMC6444592, “Citrullination of HP1γ chromodomain affects association with chromatin” (Epigenetics & Chromatin, 2019).

Tests used:
[1] = tested on: histone H3; experiment: citrullination of histone H3 by PADI4; assay type: biochemical; details: calcium, anti-H3R2-citrulline and Pan-Cit immunoblot
Protocol: For immunoblotting, cells were lysed in 2 × Laemmli buffer and sonicated in a water bath (Fisherbrand) for 3 min to shear genomic DNA, spun down at full speed in a microfuge for 15 min and incubated for 5 min at 95 °C. Proteins were resolved by SDS-PAGE, transferred to nitrocellulose membrane (Millipore) using wet transfer (transfer buffer: 192 mM glycine, 25 mM Tris.HCl pH8.8) and incubated in blocking solution (5% BSA in TBS containing 0.5% Tween-20 for citrulline sensitive antibodies and 5% non-fat milk powder in TBS containing 0.1% Tween-20 for all other antibodies) for 1 h at room temperature (RT). Membranes were incubated with primary antibody at 4 °C o/n and appropriate HRP-conjugated secondary antibody for 1 h at RT. Membranes were then incubated for enhanced chemiluminescence (ECL, Promega), and proteins were detected by exposure to X-ray film or using the ChemiDoc™ MP imaging system (Bio-Rad). Images were quantified using ImageJ analysis software. Primary antibodies diluted in blocking solution were used to detect citrullinated histone H3R2 (H3R2-Cit, Abcam ab176843 at 1:1000 dilution), HP1γ (Millipore 05-690 MAB clone 42s2 [16] at 1:1000 dilution), β-Tubulin (Abcam ab6046 at 1:1000 dilution) and peptidyl-citrulline (Millipore MABN328, clone F95 [48] at 1:1000 dilution). […]

[2] = tested on: methylated H3K9; details: at gene promoters; cited from earlier work
Description: It is possible that PADI4 targets both H3R8 and HP1γ bound to the same H3N-terminal tail. The Nanog gene may represent an important example of such a locus, since chromatin immunoprecipitation experiments have shown that both HP1γ and PADI4 bind to its promoter and regulate gene expression in stem cells.

[3] = tested on: H1.2; details: reprogramming and ground state pluripotent stem cells; cited from earlier work
Description: We previously identified a role for PADI4 during reprogramming and ground state pluripotent stem cells, where the deiminase regulates key pluripotency genes via a mechanism involving citrullination of H1.2. […] Here, we report that the chromodomain of HP1γ is also citrullinated in mESCs, at R38 and R39. […] Furthermore, mutations in HP1γ designed to mimic the loss of charge caused by citrullination inhibit binding ...

## Peptidylarginine deiminase 4 [PADI4]
[1]
  enzymatic activity of recombinant PADI4 on histone H3: confirmed by citrullination of histone H3
[2]
  effect of H3R8 citrullination on HP1 binding to adjacent methylated H3K9: reduces the binding affinity of HP1 to adjacent methylated H3K9
[3]
  effect of H1.2 citrullination: eviction from chromatin and global chromatin decompaction
